Measured values as given in ChEMBL document CHEMBL3046863, “Chemical composition and antifungal activity of essential oil of Chrysactinia mexicana gray” (J Agric Food Chem, 2005).
Active and inactive are the calls of the source. The calls are words filed in the database; no cut-off is given here.

Experiments:
Format in all cases: functional, organism-based
[1] = system: Aspergillus flavus; experiment: Antifungal activity against Aspergillus flavus assessed as inhibition of mycelial growth in dextrose sabouraud broth and Czapek agar at 0.6 mg/ml at 28 +/- 1 degC for 72 hr by dilution technique
[2] = system: Aspergillus flavus; experiment: Antifungal activity against Aspergillus flavus assessed as inhibition of mycelial growth in dextrose sabouraud broth and Czapek agar at 0.5 mg/ml at 28 +/- 1 degC for 72 hr by dilution technique
[3] = system: Aspergillus flavus; experiment: Antifungal activity against Aspergillus flavus assessed as inhibition of mycelial growth in dextrose sabouraud broth and Czapek agar at 0.4 mg/ml at 28 +/- 1 degC for 72 hr by dilution technique
[4] = system: Aspergillus flavus; experiment: Antifungal activity against Aspergillus flavus assessed as inhibition of mycelial growth in dextrose sabouraud broth and Czapek agar at 0.3 mg/ml at 28 +/- 1 degC for 72 hr by dilution technique
[5] = system: Aspergillus flavus; experiment: Antifungal activity against Aspergillus flavus assessed as inhibition of mycelial growth in dextrose sabouraud broth and Czapek agar at 0.2 mg/ml at 28 +/- 1 degC for 72 hr by dilution technique
[6] = system: Aspergillus flavus; experiment: Antifungal activity against Aspergillus flavus assessed as inhibition of mycelial growth in dextrose sabouraud broth and Czapek agar at 0.1 mg/ml at 28 +/- 1 degC for 72 hr by dilution technique
[7] = system: Sclerotinia sclerotiorum; experiment: Antifungal activity against Sclerotinia sclerotiorum assessed as inhibition of mycelial growth in dextrose sabouraud broth and Czapek agar at 28 +/- 1 degC for 72 hr by dilution technique

| SMILES | Activity [1] | Activity [2] | Activity [3] | Activity [4] | Activity [5] | Activity [6] | EC50 [7] |
| --- | --- | --- | --- | --- | --- | --- | --- |
| CC1=CC(=O)C(C(C)C)CC1 (centres undefined) | Active | inactive | inactive | inactive | inactive | inactive | – |
| C=CC(C)(CCC=C(C)C)OC(C)=O (centres undefined) [LINALYL ACETATE] | inactive | inactive | inactive | inactive | inactive | inactive | 569.62 uL/L |
| CC12CCC(CC1)C(C)(C)O2 | inactive | inactive | inactive | inactive | inactive | inactive | – |
